From patent publication US9701677B2, “Fused pyrimidine compounds” (Gilead Sciences, Inc., priority 2014, dated 2017)
Read-outs that look alike come from different tables or passages of the source.

What was measured:
Type in all cases: cell-based
[1] = system: HIV-1 reverse transcriptase mutant K103N; experiment: High throughput cytopathic effect assay in MT-4 cells, K103N mutant; details: for EC50: Human immunodeficiency virus 1, MT4, 120 h, read-out: MT4 EC50 (nM) against K103N; for FC against mutant K103N: fold change of EC50, K103N versus w.t. assay 2
Excerpt: (§1) Compounds were screened in a miniaturized, high throughput cytopathic effect assay for activity against HIV-1 HBX2 (wild type) and HIV-1 reverse transcriptase mutants K103N and Y181C. In Tables 1 and 2 below, “w.t.” refers to results of the tested compounds run with the wildtype 1 and “w.t. assay 2” refers results of the tested compounds run with the wildtype on the same day as the testing of the compounds with the mutants. Thus, “w.t. assay 2” was run under the same conditions as the testing of the compounds with the mutants and provides a direct comparison with the results from the testing with the mutants.
(§2) Ten-point serial dilutions of compounds with half-log step size were generated in DMSO. AZT (5 μM) was used as the positive control and DMSO as the negative control. The Echo acoustic dispenser was used to deliver 200 nL of serially diluted compound into sterile 384 well tissue culture assay plates. Two million MT-4 cells were incubated with each of the 3 viruses at MOI of 0.0005 in separate 1 mL infection tubes for 1 hour at 37° C. The cells were diluted in cell culture medium (RPMI+10% FBS) to 50,000 cells/mL. The infected cells were added to 384 well assay plates containing serially dilute compounds. Assay plates were incubated for 5 days in a humidified incubator set at 37° C. and 5% CO2. To measure the cytopathic effect of HIV, 40 μL Cell TiterGlo was added to each well and the resulting luminescence signal is read with the Envision plate reader (Perkin Elmer). Data were normalized to positive and negative controls in each plate and expressed as % CPE Protection. […]

[2] = system: HIV-1 reverse transcriptase mutant Y181C; experiment: High throughput cytopathic effect assay in MT-4 cells, Y181C mutant; details: for EC50: Human immunodeficiency virus 1, MT4, 120 h, read-out: MT4 EC50 (nM) against Y181C; for FC against mutant Y181C: fold change of EC50, Y181C versus w.t. assay 2
Excerpt: as §1, §2

[3] = system: HIV-1 HBX2 (wild type); experiment: High throughput cytopathic effect assay in MT-4 cells, wild type HIV-1
Excerpt: as §1, §2

[4] = target: T1, hERG channels (Homo sapiens, UniProt Q12809); experiment: hERG assay, whole cell recordings in CHO cell line stably expressing hERG channels; details: CHO cells expressing hERG, tail current, Table 3
T1 construct: host or cells: CHO cell line stably expressing hERG
Description: Cells were cultured in DMEM/F12 containing 10% FBS, 1% penicillin/streptomycin and 500 μg/ml G418. Before testing, cells were harvested using Accumax (Innovative Cell Technologies).
Cells were voltage clamped at a holding potential of −80 mV. The hERG current was then activated by a depolarizing step to −50 mV for 300 ms. This first step at −50 mV was used as a baseline for measuring peak amplitude of the tail current. Next, a voltage step to +20 mV was applied for 5 s to activate the channels. Finally, a step back to −50 mV for 5 s removed activation and the deactivating tail current was recorded.
Solutions were mixed by sonication for 20 min, followed by vigorous vortexing. Prior to testing, compounds were diluted to test concentrations in glass vials using External Solution. Dilutions were prepared no longer than 20 min prior to use.
External solution containing 0.1% DMSO (vehicle) was applied to the cells to establish a baseline. […] Test article solutions were added to cells in 4 separate additions. Cells were kept in test solution until effect of the test article reached steady state, to a maximum of 12 min. Next, 1 μM cisapride (positive control) was added. Finally, washout with External Solution was performed until the recovery current reached steady state.

[5] = Human immunodeficiency virus 1, MT4, 120 h, MT-4 cells, HIV-1 wild type, 5 days, CPE protection (Cell TiterGlo), read-out: MT4 EC50 (nM) against w.t.
[6] = Human immunodeficiency virus 1, MT4, read-out: MT4 EC50 (nM) against w.t. assay 2

T1 sequence (Q12809 whole entry): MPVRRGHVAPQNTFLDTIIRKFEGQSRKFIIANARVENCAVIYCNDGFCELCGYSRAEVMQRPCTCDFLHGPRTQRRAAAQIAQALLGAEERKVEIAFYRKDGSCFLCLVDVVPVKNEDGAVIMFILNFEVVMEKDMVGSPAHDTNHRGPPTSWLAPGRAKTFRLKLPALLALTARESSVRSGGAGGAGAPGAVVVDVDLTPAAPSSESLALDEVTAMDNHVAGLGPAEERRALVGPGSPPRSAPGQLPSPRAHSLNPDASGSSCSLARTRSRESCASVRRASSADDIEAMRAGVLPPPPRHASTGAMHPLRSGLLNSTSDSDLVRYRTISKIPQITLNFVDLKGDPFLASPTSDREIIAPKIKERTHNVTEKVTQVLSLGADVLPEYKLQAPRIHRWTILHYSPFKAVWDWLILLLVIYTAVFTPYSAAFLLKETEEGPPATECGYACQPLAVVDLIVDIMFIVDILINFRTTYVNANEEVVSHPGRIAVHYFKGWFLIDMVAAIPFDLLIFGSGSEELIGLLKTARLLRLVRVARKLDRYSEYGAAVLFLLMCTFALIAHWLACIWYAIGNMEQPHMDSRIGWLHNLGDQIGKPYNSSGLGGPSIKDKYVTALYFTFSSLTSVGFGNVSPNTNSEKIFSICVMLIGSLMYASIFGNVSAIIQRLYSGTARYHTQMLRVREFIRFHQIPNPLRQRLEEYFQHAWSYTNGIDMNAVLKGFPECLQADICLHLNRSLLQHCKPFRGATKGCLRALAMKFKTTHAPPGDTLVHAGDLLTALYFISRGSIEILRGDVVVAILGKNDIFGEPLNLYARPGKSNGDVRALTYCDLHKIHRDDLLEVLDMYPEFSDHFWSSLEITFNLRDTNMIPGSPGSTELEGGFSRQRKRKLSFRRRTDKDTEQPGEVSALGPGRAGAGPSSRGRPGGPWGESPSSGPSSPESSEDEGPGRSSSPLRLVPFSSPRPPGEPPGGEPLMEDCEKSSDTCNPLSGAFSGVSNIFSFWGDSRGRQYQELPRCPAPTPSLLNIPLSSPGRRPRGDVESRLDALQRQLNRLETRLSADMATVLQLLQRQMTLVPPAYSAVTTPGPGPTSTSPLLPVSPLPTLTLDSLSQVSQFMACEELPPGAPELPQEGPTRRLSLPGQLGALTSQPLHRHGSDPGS

SMILES	EC50 [1]	FC against mutant K103N [1]	EC50 [2]	FC against mutant Y181C [2]	EC50 [3, 5]	EC50 [3, 6]	IC50 [4]
Cc1cc(/C=C/C#N)cc(C)c1-c1nccc2c(N)nc(Nc3ccc(C#N)cc3)nc12 [Compound 1, (E)-4-((4-Amino-8-(4-(2-cyanovinyl)-2,6-dimethylphenyl)pyrido[3,4-d]pyrimidin-2-yl)amino)benzonitrile]	2.3 nM	1.7	5.5 nM	4.0	2.1 nM	1.4 nM	
Cc1cc(/C=C/C#N)cc(C)c1-c1cncc2c(N)nc(Nc3ccc(C#N)cc3)nc12 [Compound 2, (E)-4-((4-Amino-8-(4-(2-cyanovinyl)-2,6-dimethylphenyl)pyrido[4,3-d]pyrimidin-2-yl)amino)benzonitrile]	14.3 nM	1.1	40.4 nM	3.2	6.1 nM	12.6 nM	1700 nM
Cc1cc(/C=C/C#N)cc(C)c1-c1ccnc2c(N)nc(Nc3ccc(C#N)cc3)nc12 [Compound 3, (E)-4-((4-amino-8-(4-(2-cyanovinyl)-2,6-dimethylphenyl)pyrido[3,2-d]pyrimidin-2-yl)amino)benzonitrile]					4.6 nM		
